Results: patent US10183943B2, “Heterocyclic compounds and their use in preventing or treating bacterial infections” (MUTABILIS, priority 2015, dated 2019)

Columns and labels:
TEM-1 = molecular target: T1, TEM-1 (Escherichia coli, UniProt P62593); assay: β-lactamase inhibitory activity, determination of IC50 (nitrocefin hydrolysis); format: biochemical
T1 construct: made in house; host or cells: E. coli

OXA-11 = molecular target: T2, OXA-11 (Pseudomonas aeruginosa, UniProt Q06778); assay: as above; format: biochemical
T2 construct: made in house; host or cells: E. coli
T2 sequence (Q06778 21-266): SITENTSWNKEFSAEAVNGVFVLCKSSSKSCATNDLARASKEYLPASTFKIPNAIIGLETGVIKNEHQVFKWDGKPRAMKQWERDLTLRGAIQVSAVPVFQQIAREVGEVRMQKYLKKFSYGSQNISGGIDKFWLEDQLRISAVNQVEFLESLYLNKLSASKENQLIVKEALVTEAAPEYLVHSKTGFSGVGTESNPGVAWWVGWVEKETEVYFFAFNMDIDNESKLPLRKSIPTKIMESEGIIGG

KPC-2 = molecular target: T3, KPC-2 (Klebsiella pneumoniae, UniProt Q9F663); assay: as above; format: biochemical; settings: class (A); nitrocefin 200 μM, 30 min pre-incubation; read-out: IC50 β-lactamase KPC-2
T3 construct: made in house; host or cells: E. coli
T3 sequence (Q9F663 25-293 limits assumed): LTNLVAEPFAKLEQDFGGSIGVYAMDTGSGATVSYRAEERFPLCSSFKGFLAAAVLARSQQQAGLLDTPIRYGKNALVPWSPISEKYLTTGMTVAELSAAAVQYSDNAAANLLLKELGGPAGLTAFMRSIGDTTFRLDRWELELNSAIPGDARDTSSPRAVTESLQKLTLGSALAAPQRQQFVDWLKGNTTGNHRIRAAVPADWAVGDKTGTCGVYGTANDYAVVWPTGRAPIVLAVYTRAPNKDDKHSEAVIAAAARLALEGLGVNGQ

OXA-15 = molecular target: T4, OXA-15 (Pseudomonas aeruginosa, UniProt Q51574); assay: biochemical
T4 construct: made in house; host or cells: E. coli
T4 sequence (Q51574 22-275): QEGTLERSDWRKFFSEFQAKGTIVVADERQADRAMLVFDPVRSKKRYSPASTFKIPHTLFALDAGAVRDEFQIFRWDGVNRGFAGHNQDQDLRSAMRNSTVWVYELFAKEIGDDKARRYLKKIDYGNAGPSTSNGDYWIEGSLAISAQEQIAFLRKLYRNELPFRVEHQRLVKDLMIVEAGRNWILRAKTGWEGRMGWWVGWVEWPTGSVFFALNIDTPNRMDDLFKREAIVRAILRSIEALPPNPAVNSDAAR

[1] = system: K. pneumoniae UFR24 (TEM-1, SHV-2, SHV-11, OXA-1, OXA-48, OXA-47); assay: MIC of compounds alone, broth microdilution; format: cell-based; settings: Klebsiella pneumoniae; strain UFR24 (K. pneumoniae); read-out: MIC compounds of the invention alone
In short: (§1)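 MICs of compounds without ceftazidime were measured by CLSI broth microdilution in cation-adjusted Mueller-Hinton broth. Growth was checked by eye after 16-20 h at 35° C.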

[2] = system: E. coli UFR32 (TEM-1, VEB-1, OXA-10); assay: MIC of compounds alone, broth microdilution; format: cell-based; settings: Escherichia coli; strain UFR32 (E. coli); read-out: MIC compounds of the invention alone
In short: as §1

[3] = system: K. pneumoniae UFR39 (CTX-M-15, NDM-1); assay: MIC of compounds alone, broth microdilution; format: cell-based; settings: Klebsiella pneumoniae; strain UFR39 (K. pneumoniae); read-out: MIC compounds of the invention alone
In short: as §1

[4] = system: E. coli UFR74 (SHV-1, DHA-1); assay: MIC of compounds alone, broth microdilution; format: cell-based; settings: Escherichia coli; strain UFR74 (E. coli); read-out: MIC compounds of the invention alone
In short: as §1

[5] = system: K. pneumoniae UFR68 (TEM-1, SHV-11, CTX-M-15, KPC-3); assay: MIC of compounds alone, broth microdilution; format: cell-based; settings: Klebsiella pneumoniae, read-out: MIC compounds of the invention alone
In short: as §1

E. coli RGN238 (OXA-1) = assay: MIC of compounds alone, broth microdilution; format: cell-based; settings: Escherichia coli; strain RGN238 (E. coli); read-out: MIC compounds of the invention alone
In short: as §1

[6] = system: P. aeruginosa CIP107051 (TEM-24); assay: MIC of compounds alone, broth microdilution; format: cell-based; settings: Pseudomonas aeruginosa; strain CIP107051 (P. aeruginosa); read-out: MIC compounds of the invention alone
In short: as §1

[7] = system: K. pneumoniae BAA-1898 (TEM-1, SHV-11, SHV-12, KPC-2); assay: MIC of compounds alone, broth microdilution; format: cell-based; settings: Klebsiella pneumoniae, BAA1898; strain BAA-1898 (K. pneumoniae); read-out: MIC compounds of the invention alone
In short: as §1

[8] = system: E. cloacae UFR70 (TEM-1, CTX-M-15, CMY-2, OXA-1, Porin loss); assay: MIC of compounds alone, broth microdilution; format: cell-based; settings: Enterobacter cloacae, read-out: MIC compounds of the invention alone
In short: as §1

[9] = system: K. oxytoca UFR21 (TEM-1, CTX-M-15, OXA-48); assay: MIC of compounds alone, broth microdilution; format: cell-based; settings: Klebsiella oxytoca, read-out: MIC compounds of the invention alone
In short: as §1

[10] = system: E. coli UFR61O (TEM-1, KPC-2); assay: MIC of compounds alone, broth microdilution; format: cell-based; settings: Escherichia coli; strain UFR61O (E. coli); read-out: MIC compounds of the invention alone
In short: as §1

[11] = system: E. cloacae UFR85 (TEM-1, CTX-M-15, AmpC); assay: MIC of compounds alone, broth microdilution; format: cell-based; settings: Enterobacter cloacae, read-out: MIC compounds of the invention alone
In short: as §1

[12] = system: E. coli UFR18 (CTX-M-15, OXA-204); assay: MIC of compounds alone, broth microdilution; format: cell-based; settings: Escherichia coli; strain UFR18 (E. coli); read-out: MIC compounds of the invention alone
In short: as §1

[13] = system: E. cloacae UFR51 (SHV-12, IMP-8); assay: MIC of compounds alone, broth microdilution; format: cell-based; settings: Enterobacter cloacae; strain UFR51 (E. cloacae); read-out: MIC compounds of the invention alone
In short: as §1

[14] = system: K. pneumoniae 6299 (TEM-1, SHV-11, OXA-163); assay: MIC of compounds alone, broth microdilution; format: cell-based; settings: Klebsiella pneumoniae; strain 6299 (K. pneumoniae); read-out: MIC compounds of the invention alone
In short: as §1

[15] = system: E. coli UFR41 (TEM-1, CTX-M-15, CMY-2, OXA-1, NDM-4); assay: MIC of compounds alone, broth microdilution; format: cell-based; settings: Escherichia coli, read-out: MIC compounds of the invention alone
In short: as §1

E. cloacae P99 (AmpC) = assay: MIC of compounds alone, broth microdilution; format: cell-based; settings: Enterobacter cloacae; strain P99 (E. cloacae); read-out: MIC compounds of the invention alone
In short: as §1

[16] = system: K. pneumoniae 200047 (TEM-1, SHV-32, CTX-M-15, OXA-1); assay: MIC of compounds alone, broth microdilution; format: cell-based; settings: Klebsiella pneumoniae, read-out: MIC compounds of the invention alone
In short: as §1

[17] = system: K. pneumoniae 160143 (TEM-1, SHV-1, CTX-M-15, KPC-2, OXA-1); assay: MIC of compounds alone, broth microdilution; format: cell-based; settings: Klebsiella pneumoniae, read-out: MIC compounds of the invention alone
In short: as §1

[18] = system: E. coli 131119 (TEM-1, OXA-48); assay: MIC of compounds alone, broth microdilution; format: cell-based; settings: Escherichia coli; strain 131119 (E. coli); read-out: MIC compounds of the invention alone
In short: as §1

[19] = system: K. pneumoniae UFR77 (CMY-2); assay: MIC of compounds alone, broth microdilution; format: cell-based; settings: Klebsiella pneumoniae; strain UFR77 (K. pneumoniae); read-out: MIC compounds of the invention alone
In short: as §1

[20] = system: E. cloacae 260508 (TEM-1, CTX-M-15); assay: MIC of compounds alone, broth microdilution; format: cell-based; settings: Enterobacter cloacae, read-out: MIC compounds of the invention alone
In short: as §1

SHV-1 = molecular target: T5, SHV-1 (Klebsiella pneumoniae, UniProt P0AD64); assay: β-lactamase inhibitory activity, determination of IC50 (nitrocefin hydrolysis); format: biochemical
T5 construct: made in house; host or cells: E. coli
T5 sequence (P0AD64 22-286): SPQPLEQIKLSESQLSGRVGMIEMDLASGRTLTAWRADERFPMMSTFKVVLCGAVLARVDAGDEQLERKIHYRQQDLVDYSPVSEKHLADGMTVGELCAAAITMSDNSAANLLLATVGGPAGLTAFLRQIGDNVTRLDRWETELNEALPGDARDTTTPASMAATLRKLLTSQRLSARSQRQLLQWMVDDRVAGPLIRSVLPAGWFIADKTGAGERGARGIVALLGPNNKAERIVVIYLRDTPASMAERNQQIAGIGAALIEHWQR

OXA-48 = molecular target: T6, OXA-48 (Klebsiella pneumoniae, UniProt Q6XEC0); assay: as above; format: biochemical; settings: class (D); nitrocefin 200 μM, 30 min pre-incubation; read-out: IC50 β-lactamase OXA-48
T6 construct: made in house; host or cells: E. coli
T6 sequence (Q6XEC0 23-265 limits assumed): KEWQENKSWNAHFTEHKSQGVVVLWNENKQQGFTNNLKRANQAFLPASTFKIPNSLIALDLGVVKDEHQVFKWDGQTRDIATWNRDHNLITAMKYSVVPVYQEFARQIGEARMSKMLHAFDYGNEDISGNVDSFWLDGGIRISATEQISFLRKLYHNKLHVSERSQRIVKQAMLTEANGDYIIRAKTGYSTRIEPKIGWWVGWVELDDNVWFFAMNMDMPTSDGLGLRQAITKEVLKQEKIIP

AmpC (P99) = AmpC (P99) (Enterobacter cloacae, UniProt P05364); assay: as above
Chain of AmpC (P99) (P05364 21-381): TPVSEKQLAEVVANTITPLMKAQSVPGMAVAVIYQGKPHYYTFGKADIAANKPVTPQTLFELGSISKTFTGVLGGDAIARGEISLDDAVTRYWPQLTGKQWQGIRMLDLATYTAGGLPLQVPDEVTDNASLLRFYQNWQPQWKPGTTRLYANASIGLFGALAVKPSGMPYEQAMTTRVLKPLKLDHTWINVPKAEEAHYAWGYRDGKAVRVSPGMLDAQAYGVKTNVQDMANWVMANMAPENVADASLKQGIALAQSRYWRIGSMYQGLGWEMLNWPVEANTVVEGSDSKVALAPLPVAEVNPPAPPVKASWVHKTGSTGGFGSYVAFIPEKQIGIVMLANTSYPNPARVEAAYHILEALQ

CTX-M-15 = molecular target: T7, CTX-M-15 (Escherichia coli, UniProt Q9EXV5); assay: as above; format: biochemical; settings: class (A); nitrocefin 200 μM, 30 min pre-incubation; read-out: IC50 β-lactamase CTX-M-15
T7 construct: made in house; host or cells: E. coli
T7 sequence (Q9EXV5 entry or part of it): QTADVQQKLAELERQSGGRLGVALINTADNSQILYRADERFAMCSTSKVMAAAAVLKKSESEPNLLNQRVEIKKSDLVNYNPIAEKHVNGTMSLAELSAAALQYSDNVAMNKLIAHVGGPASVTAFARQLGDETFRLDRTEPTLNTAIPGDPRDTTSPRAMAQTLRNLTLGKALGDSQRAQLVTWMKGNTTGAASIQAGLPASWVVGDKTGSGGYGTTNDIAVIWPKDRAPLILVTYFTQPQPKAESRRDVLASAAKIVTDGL

AmpC P. aeruginosa = AmpC P. aeruginosa (Pseudomonas aeruginosa, UniProt P24735); assay: as above
Chain of AmpC P. aeruginosa (P24735 27-397): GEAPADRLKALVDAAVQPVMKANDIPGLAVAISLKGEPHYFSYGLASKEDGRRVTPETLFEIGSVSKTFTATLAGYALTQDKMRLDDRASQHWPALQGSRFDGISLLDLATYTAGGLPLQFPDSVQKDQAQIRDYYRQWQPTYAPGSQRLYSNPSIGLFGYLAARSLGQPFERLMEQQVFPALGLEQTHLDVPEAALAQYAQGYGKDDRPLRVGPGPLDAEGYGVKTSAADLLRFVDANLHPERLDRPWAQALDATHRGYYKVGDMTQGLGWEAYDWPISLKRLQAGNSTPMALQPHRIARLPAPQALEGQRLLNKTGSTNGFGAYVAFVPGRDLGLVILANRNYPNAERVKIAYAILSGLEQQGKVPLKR

OXA-1 = molecular target: T8, OXA-1 (Escherichia coli, UniProt P13661); assay: as above; format: biochemical; settings: class (D); nitrocefin 200 μM, 30 min pre-incubation; read-out: IC50 β-lactamase OXA-1
T8 construct: made in house; host or cells: E. coli
T8 sequence (P13661 26-276): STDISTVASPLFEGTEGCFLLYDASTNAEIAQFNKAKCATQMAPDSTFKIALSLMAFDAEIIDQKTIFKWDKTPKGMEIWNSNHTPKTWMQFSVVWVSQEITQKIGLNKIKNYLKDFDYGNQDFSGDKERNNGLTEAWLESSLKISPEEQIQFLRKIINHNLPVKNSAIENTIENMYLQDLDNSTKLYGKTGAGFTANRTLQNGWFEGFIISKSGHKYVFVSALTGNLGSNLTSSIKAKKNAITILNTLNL

[21] = system: E. coli 190317 (TEM-1, SHV-12, CTX-M-15, OXA-1); assay: MIC of compounds alone, broth microdilution; format: cell-based; settings: Escherichia coli, read-out: MIC compounds of the invention alone
In short: as §1

[22] = system: E. cloacae UFR51 (SHV-12, IMP-8); assay: MIC of ceftazidime (CAZ) in combination with compounds at 4 μg/mL, broth microdilution; format: cell-based; settings: strain UFR51; MIC of CAZ with compound fixed at 4 μg/mL
Description: Method 2: MIC of Compounds and Synergy with Ceftazidime Against Bacterial Isolates (Table 2 and 3)
Compounds of the present invention were assessed against genotyped bacterial strains alone or in combination with the β-lactam ceftazidime (CAZ). In the assays, MICs of said compounds, or of ceftazidime at fixed concentrations of said compounds were determined by the broth microdilution method according to the Clinical Laboratory Standards Institute (CLSI-M7-A7). Briefly, compounds alone according to the invention were prepared in DMSO and spotted (2 μL each) on sterile polystyrene plates (Corning, 3788). Compounds and ceftazidime dilutions were prepared in DMSO and spotted (1 μL each) on sterile polystyrene plates (Corning, 3788). Log phase bacterial suspensions were adjusted to a final density of 5×10^5 cfu/mL in cation-adjusted Mueller-Hinton broth (Becton-Dickinson) and added to each well (98 μL). Microplates were incubated for 16-20 h at 35° C. in ambient air. The MIC of the compounds was defined as the lowest concentration of said compounds that prevented bacterial growth as read by visual inspection. The MIC of ceftazidime at each compound concentration was defined as the lowest concentration of ceftazidime that prevented bacterial growth as read by visual inspection.

T1 sequence (P62593 24-286 limits assumed): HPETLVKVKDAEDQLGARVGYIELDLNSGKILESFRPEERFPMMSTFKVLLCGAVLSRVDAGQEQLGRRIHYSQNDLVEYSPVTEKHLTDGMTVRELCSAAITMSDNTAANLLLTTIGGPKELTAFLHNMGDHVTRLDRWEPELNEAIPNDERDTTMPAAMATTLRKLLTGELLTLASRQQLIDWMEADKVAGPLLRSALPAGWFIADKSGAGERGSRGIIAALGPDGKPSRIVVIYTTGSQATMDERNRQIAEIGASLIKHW

Compound | IC50 (TEM-1) | IC50 (OXA-11) | IC50 (KPC-2) | IC50 (OXA-15) | MIC [1] | MIC [2] | MIC [3] | MIC [4] | MIC (E. coli RGN238 (OXA-1)) | MIC [6] | MIC [7] | MIC [8] | MIC [9] | MIC [10] | MIC [12] | MIC [13] | MIC [14] | MIC (E. cloacae P99 (AmpC)) | MIC [16] | MIC [17] | other results
O=C1N2CC=C(c3cnoc3)C(C2)N1OS(=O)(=O)[O-].[Na+] (centres unmarked) [Example 5, Sodium (7-oxo-4-isoxazol-4-yl-1,6-diaza-bicyclo[3.2.1]oct-3-en-6-yl) sulfate] | 11 nM | 2200 nM | 270 nM | 94 nM | > 32 µg/mL | 1 µg/mL | 2 µg/mL | > 32 µg/mL | > 32 µg/mL | > 32 µg/mL | > 32 µg/mL | 16 µg/mL | > 32 µg/mL | 8 µg/mL | 1 µg/mL | 2 µg/mL | > 32 µg/mL | 8 µg/mL | > 32 µg/mL | > 32 µg/mL | MIC [5]: > 32 µg/mL; MIC [11]: > 32 µg/mL; MIC [15]: > 32 µg/mL; MIC [18]: 16 µg/mL; MIC [19]: > 32 µg/mL; MIC [20]: 16 µg/mL; IC50 (SHV-1): 25 nM; IC50 (OXA-48): 5.7 nM; IC50 (AmpC (P99)): 670 nM; IC50 (CTX-M-15): 6.9 nM; IC50 (AmpC P. aeruginosa): 1500 nM; IC50 (OXA-1): 450 nM
O=C1N2CC(c3ccncc3)=CC(C2)N1OS(=O)(=O)[O-].[Na+] (centres unmarked) [Example 33, Sodium [3-(4-pyridyl)-7-oxo-1,6-diazabicyclo[3.2.1]oct-3-en-6-yl]sulfate] | 1 nM | 210 nM | 9 nM | 110 nM | 32 µg/mL | 8 µg/mL | 16 µg/mL | 8 µg/mL | 4 µg/mL | > 32 µg/mL | 8 µg/mL | 4 µg/mL | 32 µg/mL | 16 µg/mL | 4 µg/mL | 16 µg/mL | 16 µg/mL | 8 µg/mL | 8 µg/mL | 8 µg/mL | MIC [21]: 4 µg/mL; MIC [18]: 4 µg/mL; MIC [19]: 16 µg/mL; MIC combination of CAZ and compounds of the invention at 4 μg/mL [22]: >128 µg/mL; IC50 (SHV-1): 2.3 nM; IC50 (OXA-48): 12 nM; IC50 (AmpC (P99)): 31 nM; IC50 (CTX-M-15): 0.79 nM; IC50 (AmpC P. aeruginosa): 90 nM; IC50 (OXA-1): 690 nM
